Laboratory results: ChEMBL document CHEMBL4834416, “The Discovery of Novel ACA Derivatives as Specific TRPM2 Inhibitors that Reduce Ischemic Injury Both In Vitro and In Vivo” (J Med Chem, 2021)
The source made the active and inactive calls. The rule behind the calls is not given here.

Experiments:
[1] = tested on: SH-SY5Y; experiment: Neuroprotective activity against oxygen glucose deprivation/reperfusion-induced cell death in human SH-SY5Y cells assessed as cell viability at 3 uM […] by CCK8 assay relative to control; assay type: functional
[2] = tested on: SH-SY5Y; experiment: Neuroprotective activity against oxygen glucose deprivation/reperfusion-induced cell death in human SH-SY5Y cells assessed as cell viability at 0.3 uM […] for 12 hrs by CCK8 assay relative to control; assay type: functional; conditions: read-out: Activity
[3] = tested on: SH-SY5Y; experiment: Neuroprotective activity against oxygen glucose deprivation/reperfusion-induced cell death in human SH-SY5Y cells assessed as cell viability at 1 to 30 uM […] by CCK8 assay relative to control; assay type: functional; conditions: dose 1-30 µM
[4] = Half life in C57BL/6 mouse plasma at 3 mg/kg, iv by LC-MS/MS analysis; assay type: ADME, organism-based
[5] = Cmax in C57BL/6 mouse plasma at 100 mg/kg, IG by LC-MS/MS analysis; assay type: ADME, organism-based; design: route […], dose 100 mg/kg; conditions: po
[6] = Tmax in C57BL/6 mouse plasma at 1 mg/kg, iv by LC-MS/MS analysis; assay type: ADME, organism-based
[7] = AUC (0 to t) in C57BL/6 mouse plasma at 10 mg/kg, IG by LC-MS/MS analysis; assay type: ADME, organism-based; design: dose 10 mg/kg; conditions: po
[8] = Clearance in C57BL/6 mouse plasma at 0.3 mg/kg, iv by LC-MS/MS analysis; assay type: ADME, organism-based
[9] = tested on: Mus musculus; experiment: Neuroprotective activity in mouse model of transient middle cerebral artery occlusion-induced cerebral ischemia-reperfusion injury assessed as reduction in infarct volume at 0.3 mg/kg, iv treated for 3 hrs after onset of reperfusion by TTC staining based assay (reference value: 52 +/- 1.7%); assay type: functional; design: scale not given: the % may be the effect or the level left
[10] = tested on: Mus musculus; experiment: Neuroprotective activity in mouse model of transient middle cerebral artery occlusion-induced cerebral ischemia-reperfusion injury assessed as reduction neurological score at 3 mg/kg, iv treated for 3 hrs after onset of reperfusion by TTC staining based assay (reference value: 2.4 +/- 0.5); assay type: functional

In the case of `O=C(/C=C/c1ccc(-c2cccc(C(F)(F)F)c2)cc1)Nc1ccccc1C(=O)O`, the Activity [1] is reported as “Active”, the viability at 0.3 µM [2] is reported as 68.7% and the Activity [3] is reported as 80%. It also gave a half-life [4] of 80.4 min, a Cmax [5] of 168 µg/mL and a Tmax [6] of 4.8 min. The AUC(0-t) [7] was 157 µg·h/mL, the clearance [8] was 0.055 L/h/kg and the Activity [9] was 39.8%. For the same compound, the Activity [10] was 1.8.
